Reference: US20170003277A1 (priority 2015, published 2017)

Assays:
[1] = system: THP-1 human monocyte cell line; assay: Pathway enrichment (DAVID) in THP-1 study: Copaxone vs mannitol and Probioglat vs GA; type: cell-based; conditions: top upregulated genes, Copaxone vs mannitol, 6 hours
[2] = system: mouse splenocytes, THP-1 human monocyte cell line, PBMCs from MS patients; conditions: prior study (ACTRIMS-ECTRIMS 2014, P282); cited from earlier work
[3] = system: THP-1 human monocyte cell line; assay: Luminex secreted cytokines and chemokines from THP-1 cells, 24 hours, Polimunol or Probioglat vs Copaxone (Example 13); type: cell-based; conditions: mannitol control
Method: To evaluate effects of Copaxone at the protein level, and assess the extent to which differences observed at the mRNA level (using micaroarry and qRT-PCR) were further consistent with effects observed at the level of the translated proteins, levels of 42 secreted cytokines and chemokines were measured using Luminex technology, analyzing the supernatant of THP-1 cells (human monocyte cell line) stimulated for 24 hours with Copaxone, FOGA, or mannitol control.
Measurements were also undertaken at the protein level, in order to assess the biological relevance of the observed gene expression differences. Levels of a panel of secreted cytokines and chemokines were measured via Luminex from THP-1 cells stimulated with branded GA, Polimunol, or Probioglat.
Cells from the THP-1 human monocyte cell line were incubated with branded GA, FOGA (Polimunol or Probioglat), or vehicle control (mannitol) for 24 hours. This time point was chosen in order to reflect translation of mRNA expression patterns observed in the same study design at 6 hours post stimulation. Supernatants were collected and assayed for the concentration of selected proteins using a Luminex assay. A total of 5 biological replicates per condition were utilized.
Data (concentrations in pg/mL) were compared using a two-sided t-test with equal variance, and corrected for multiple hypothesis testing using Benjamini-Hochberg correction. […]

[4] = system: THP-1 human monocyte cell line; assay: Microarray gene expression in THP-1 cells, Polimunol vs Copaxone, two repeats, 6 hours (Example 11); type: cell-based
[5] = In two prior THP-1 studies (intersection of both prior datasets)
[6] = Intersection of prior THP-1 studies and current study

Substance: glatiramer acetate [Copaxone®]
- Fold Enrichment: GO: 0031012~extracellular matrix [1]: 5.017
- Fold Enrichment: GO: 0031224~intrinsic to membrane [1]: 1.684
- Fold Enrichment: GO: 0031226~intrinsic to plasma membrane [1]: 3.268
- Fold Enrichment: GO: 0031347~regulation of defense response [1]: 5.519
- Fold Enrichment: GO: 0031349~positive regulation of defense response [1]: 6.758
- Fold Enrichment: GO: 0031960~response to corticosteroid stimulus [1]: 6.623
- Fold Enrichment: GO: 0032101~regulation of response to external stimulus [1]: 6.288
- Fold Enrichment: GO: 0032496~response to lipopolysaccharide [1]: 5.682
- Fold Enrichment: GO: 0032502~developmental process [1]: 1.643
- Fold Enrichment: GO: 0032879~regulation of localization [1]: 2.359
- Fold Enrichment: GO: 0040011~locomotion [1]: 3.21
- Fold Enrichment: GO: 0042221~response to chemical stimulus [1]: 1.879
- Fold Enrichment: GO: 0042330~taxis [1]: 4.651
- Fold Enrichment: GO: 0044243~multicellular organismal catabolic process [1]: 20.7
- Fold Enrichment: GO: 0044421~extracellular region part [1]: 3.61
- Fold Enrichment: GO: 0044425~membrane part [1]: 1.539
- Fold Enrichment: GO: 0044459~plasma membrane part [1]: 2.404
- Fold Enrichment: GO: 0045028~purinergic nudeotide receptor activity, G-protein coupled [1]: 13.87
- Fold Enrichment: GO: 0045595~regulation of cell differentiation [1]: 2.517
- Fold Enrichment: GO: 0046903~secretion [1]: 3.164
- Fold Enrichment: GO: 0048513~organ development [1]: 1.846
- Fold Enrichment: GO: 0048514~blood vessel morphogenesis [1]: 3.398
- Fold Enrichment: GO: 0048518~positive regulation of biological process [1]: 1.559
- Fold Enrichment: GO: 0048519~negative regulation of biological process [1]: 1.629
- Fold Enrichment: GO: 0048545~response to steroid hormone stimulus [1]: 4.216
- Fold Enrichment: GO: 0048583~regulation of response to stimulus [1]: 3.613
- Fold Enrichment: GO: 0048584~positive regulation of response to stimulus [1]: 3.79
- Fold Enrichment: GO: 0048731~system development [1]: 1.918
- Fold Enrichment: GO: 0048856~anatomical structure development [1]: 1.792
- Fold Enrichment: GO: 0048869~cellular developments process [1]: 1.736
- Fold Enrichment: GO: 0048870~cell motility [1]: 2.99
- Fold Enrichment: GO: 0050727~regulation of inflammatory response [1]: 8.87
- Fold Enrichment: GO: 0050729~positive regulation of inflammatory response [1]: 11.5
- Fold Enrichment: GO: 0050776~regulation of immune response [1]: 4.293
- Fold Enrichment: GO: 0050793~regulation of developmental process [1]: 3.161
- Fold Enrichment: GO: 0050864~regulation of B cell activation [1]: 8.565
- Fold Enrichment: GO: 0050865~regulation of cell activation [1]: 4.296
- Fold Enrichment: GO: 0050867~positive regulation of cell activation [1]: 4.664
- Fold Enrichment: GO: 0050896~response to stimulus [1]: 1.852
- Fold Enrichment: GO: 0051239~regulation of multicellular organismal process [1]: 2.792
- Fold Enrichment: GO: 0051241~negative regulation of multicellular organismal [1]: 4.902
- Fold Enrichment: GO: 0051270~regulation of cell motion [1]: 3.643
- Fold Enrichment: GO: 0051384~response to glucocorticoid stimulus [1]: 7.046
- Fold Enrichment: GO: 0051674~localization of cell [1]: 2.99
- Fold Enrichment: GO: 0051704~multi-organism process [1]: 2.223
- Fold Enrichment: GO: 0051707~response to other organism [1]: 4.426
- Fold Enrichment: GO: 0060089~molecular transducer activity [1]: 2.537
- Fold Enrichment: GO: 0065007~biological regulation [1]: 1.236
- Fold Enrichment: GO: 0065008~regulation of biological quality [1]: 2.067
- Fold Enrichment: GO: 0080134~regulation of response to stress [1]: 3.7
- Fold Enrichment: GO: 00322501~multicellular organismal process [1]: 1.77
- Fold Enrichment: GO: 00550878~regulation of body fluid levels [1]: 4.87
- Fold Enrichment: hsa04060:Cytokine-cytokine receptor interaction [1]: 3.911
- Genes modulated by Copaxone in both mouse splenocyte and THP-1 systems [2]: 1,378
- Genes modulated by Copaxone only in THP-1 cells [2]: 2,121
- Genes modulated by Copaxone only in splenocytes [2]: 6,691
- CCL2 secreted level relative to control [3]: not modulated
- Probesets significantly modulated by Copaxone relative to mannitol ([4]; 6 hours): 12,115
- IL1ORA expression relative to mannitol ([4]; FDR p<1.7e-21): significantly upregulated
- Probesets downregulated by Copaxone versus mannitol with FC ≦ −1.5, number ([4]; In current study): 28
- Probesets upregulated by Copaxone versus mannitol with FC ≧ 1.5, number ([4]; In current study): 156
- Probesets downregulated by Copaxone versus mannitol with FC ≦ −1.5, number [4, 5]: 15
- Probesets upregulated by Copaxone versus mannitol with FC ≧ 1.5, number [4, 5]: 149
- Probesets downregulated by Copaxone versus mannitol with FC ≦ −1.5, number [4, 6]: 9
- Probesets upregulated by Copaxone versus mannitol with FC ≧ 1.5, number [4, 6]: 94
- IL1RN expression relative to mannitol ([4]; all 3 present probesets: FDR p values<6.2e-21, 2.6e-17, 8.0e-14): strongly upregulated
- IL10 expression relative to mannitol ([4]; single probeset not present): not upregulated significantly
- Significant probesets in pairwise comparisons between three Copaxone lots ([4]; two comparisons / third comparison (adjusted p value 0.044)): zero and single
- Probesets significantly downregulated by Copaxone ([4]; vs mannitol, 6 hours): 6819
- Probesets significantly upregulated by Copaxone ([4]; vs mannitol, 6 hours): 5296
